Measured values: the CheMixHub viscosity set
Several values for one entry are separate records, joined by “and”; a condition that tells them apart may be missing. Equal entries are not always repeated. ± gives the uncertainty stated by the source.

How the values were obtained:
[1] = xn = mol fraction of the nth substance listed

CCCCOC(=O)c1ccccc1C(=O)OCCCC
Settings | viscosity [mPa·s]
303.15 K, 101.33 kPa | 13.33 ± 0.065

CCCCCCc1ccccc1
Settings | viscosity [mPa·s]
303.15 K, 102 kPa | 1.4 ± 0.01

CC[n+]1cc[nH]c1.O=S(=O)([N-]S(=O)(=O)C(F)(F)F)C(F)(F)F
Settings | viscosity [mPa·s]
297.55 K, 101 kPa | 57.1 ± 1.9

CC(C)(N)CO
viscosity
Settings | 298.15 K | 303.15 K | 308.15 K | 313.15 K | 318.15 K | 323.15 K
100 kPa | 132.3 ± 53 mPa·s | 98.48 ± 39 mPa·s | 69.98 ± 28 mPa·s | 46.99 ± 19 mPa·s | 32.2 ± 13 mPa·s | 24.45 ± 9.8 mPa·s
101 kPa | – | 89 ± 14 mPa·s and 99.48 ± 10 mPa·s | 60.8 ± 9.9 mPa·s | 43.7 ± 7.1 mPa·s and 47.25 ± 4.7 mPa·s | 32.2 ± 5.2 mPa·s | 23.05 ± 3.7 mPa·s and 24.33 ± 2.4 mPa·s

CC(CC(C)(C)C)CP(=O)([O-])CC(C)CC(C)(C)C.CCCCCCCCCCCCCC[P+](CCCCCC)(CCCCCC)CCCCCC
101 kPa
Settings | viscosity [mPa·s]
303.15 K | 757 ± 46
313.15 K | 439 ± 23
323.15 K | 264 ± 12

CC1CCC(O)CC1 (centres undefined)
Settings | viscosity [mPa·s]
293.15 K, 101 kPa | 30.4 ± 0.9

CCCCN(CCCC)CCCC + CCCCCCCO
viscosity [mPa·s], [1], 101.3 kPa
Settings | x1 = 0.1067 | x1 = 0.1877 | x1 = 0.2841 | x1 = 0.4197 | x1 = 0.5183 | x1 = 0.619 | x1 = 0.7191 | x1 = 0.8008 | x1 = 0.89
303.15 K | 4.133 ± 0.046 | 3.677 ± 0.041 | 3.178 ± 0.036 | 2.558 ± 0.029 | 2.191 ± 0.025 | 1.881 ± 0.022 | 1.644 ± 0.019 | 1.482 ± 0.017 | 1.328 ± 0.016
313.15 K | 3.033 ± 0.035 | 2.69 ± 0.031 | 2.355 ± 0.027 | 1.956 ± 0.023 | 1.709 ± 0.02 | 1.497 ± 0.018 | 1.33 ± 0.016 | 1.217 ± 0.015 | 1.1 ± 0.013

CCCCOC(=O)c1ccccc1C(=O)OCCCC + CCCCCCCCCCO
[1], 303.15 K, 101.33 kPa
Settings | viscosity [mPa·s]
x1 = 0.1004 | 8.572 ± 0.044
x1 = 0.1995 | 8.061 ± 0.042
x1 = 0.3035 | 7.851 ± 0.041
x1 = 0.4004 | 7.91 ± 0.041
x1 = 0.4902 | 8.075 ± 0.042
x1 = 0.5977 | 8.479 ± 0.044
x1 = 0.6985 | 9.095 ± 0.047
x1 = 0.7997 | 9.985 ± 0.05
x1 = 0.8948 | 11.18 ± 0.056

C=CC#N + CCOC(C)=O
viscosity [mPa·s], [1]
Settings | 298.15 K | 303.15 K | 308.15 K
101.3 kPa, x1 = 0.0974 | – | 0.3987 ± 0.0034 | –
101.3 kPa, x1 = 0.201 | – | 0.394 ± 0.0034 | –
101.3 kPa, x1 = 0.302 | – | 0.3883 ± 0.0033 | –
101.3 kPa, x1 = 0.3997 | – | 0.3824 ± 0.0033 | –
101.3 kPa, x1 = 0.4964 | – | 0.3739 ± 0.0033 | –
101.3 kPa, x1 = 0.5946 | – | 0.3654 ± 0.0032 | –
101.3 kPa, x1 = 0.6974 | – | 0.3546 ± 0.0032 | –
101.3 kPa, x1 = 0.7978 | – | 0.3413 ± 0.0031 | –
101.3 kPa, x1 = 0.9018 | – | 0.3263 ± 0.0031 | –
101.33 kPa, x1 = 0.1002 | 0.442 ± 0.013 | 0.419 ± 0.012 | 0.398 ± 0.012
101.33 kPa, x1 = 0.2025 | 0.429 ± 0.013 | 0.403 ± 0.012 | 0.383 ± 0.012
101.33 kPa, x1 = 0.3034 | 0.42 ± 0.012 | 0.397 ± 0.012 | 0.377 ± 0.011
101.33 kPa, x1 = 0.4047 | 0.408 ± 0.012 | 0.387 ± 0.012 | 0.369 ± 0.011
101.33 kPa, x1 = 0.5034 | 0.4 ± 0.012 | 0.379 ± 0.011 | 0.361 ± 0.011
101.33 kPa, x1 = 0.5994 | 0.39 ± 0.012 | 0.368 ± 0.011 | 0.352 ± 0.011
101.33 kPa, x1 = 0.7007 | 0.381 ± 0.011 | 0.364 ± 0.011 | 0.351 ± 0.011
101.33 kPa, x1 = 0.8021 | 0.369 ± 0.011 | 0.358 ± 0.011 | 0.344 ± 0.011
101.33 kPa, x1 = 0.9003 | 0.358 ± 0.011 | 0.349 ± 0.011 | 0.328 ± 0.01

Cc1ccc(C(C)C)cc1 + CCCCCC
[1], 298.15 K, 101.33 kPa
Settings | viscosity [mPa·s]
x2 = 0.0316 | 0.768 ± 0.01
x2 = 0.0656 | 0.745 ± 0.01
x2 = 0.0967 | 0.723 ± 0.009
x2 = 0.1908 | 0.662 ± 0.009
x2 = 0.2812 | 0.599 ± 0.008
x2 = 0.3795 | 0.538 ± 0.008
x2 = 0.5183 | 0.474 ± 0.007
x2 = 0.6271 | 0.424 ± 0.006
x2 = 0.7093 | 0.393 ± 0.006
x2 = 0.8209 | 0.349 ± 0.006
x2 = 0.9331 | 0.314 ± 0.005

Cc1ccc(C(C)C)cc1 + CO
[1], 293.15 K, 101 kPa
Settings | viscosity [mPa·s]
x2 = 0.2 | 0.799 ± 0.016
x2 = 0.4 | 0.793 ± 0.015
x2 = 0.6 | 0.793 ± 0.015
x2 = 0.7 | 0.774 ± 0.015
x2 = 0.8 | 0.732 ± 0.014

CN(C)c1ccccc1 + CC(C)(C)O
[1], 303.15 K, 101 kPa
Settings | viscosity [mPa·s]
x1 = 0.0534 | 3.315 ± 0.037
x1 = 0.1054 | 3.242 ± 0.035
x1 = 0.1689 | 3.141 ± 0.033
x1 = 0.2256 | 3.041 ± 0.03
x1 = 0.2958 | 2.907 ± 0.028
x1 = 0.3612 | 2.775 ± 0.025
x1 = 0.4502 | 2.587 ± 0.022
x1 = 0.5246 | 2.423 ± 0.02
x1 = 0.6589 | 2.112 ± 0.017
x1 = 0.7421 | 1.908 ± 0.015
x1 = 0.8046 | 1.747 ± 0.014
x1 = 0.8645 | 1.584 ± 0.013
x1 = 0.9472 | 1.34 ± 0.013

CCCCN(CCCC)CCCC + CC(C)CC(C)(C)C
viscosity [mPa·s], [1], 101 kPa
Settings | x1 = 0.1106 | x1 = 0.2474 | x1 = 0.3947 | x1 = 0.4958 | x1 = 0.5982 | x1 = 0.793 | x1 = 0.8938
303.15 K | 0.505 ± 0.0057 | 0.5839 ± 0.0061 | 0.6783 ± 0.0066 | 0.7486 ± 0.007 | 0.8256 ± 0.0075 | 0.9844 ± 0.0085 | 1.072 ± 0.009
313.15 K | 0.4465 ± 0.0054 | 0.5109 ± 0.0057 | 0.5884 ± 0.0062 | 0.6462 ± 0.0065 | 0.7101 ± 0.0068 | 0.8423 ± 0.0076 | 0.9171 ± 0.008

O=C1CCCCCO1 + CNC(C)=O
viscosity [mPa·s], [1], 101 kPa
Settings | x2 = 0.0922 | x2 = 0.2381 | x2 = 0.3459 | x2 = 0.4411 | x2 = 0.5823 | x2 = 0.6289 | x2 = 0.6641 | x2 = 0.7792 | x2 = 0.9465
303.15 K | 4.458 ± 0.29 | 3.929 ± 0.26 | 3.6 ± 0.24 | 3.366 ± 0.22 | 3.201 ± 0.21 | 3.187 ± 0.21 | 3.218 ± 0.22 | 3.308 ± 0.22 | 3.629 ± 0.24
308.15 K | 3.994 ± 0.26 | 3.609 ± 0.24 | 3.358 ± 0.22 | 3.162 ± 0.21 | 2.962 ± 0.2 | 2.921 ± 0.2 | 2.912 ± 0.2 | 2.895 ± 0.2 | 3.062 ± 0.21
313.15 K | 3.543 ± 0.24 | 3.135 ± 0.21 | 2.944 ± 0.2 | 2.76 ± 0.19 | 2.602 ± 0.18 | 2.552 ± 0.17 | 2.532 ± 0.17 | 2.527 ± 0.17 | 2.773 ± 0.19
318.15 K | 3.182 ± 0.21 | 2.761 ± 0.19 | 2.616 ± 0.18 | 2.479 ± 0.17 | 2.372 ± 0.16 | 2.33 ± 0.16 | 2.348 ± 0.16 | 2.349 ± 0.16 | 2.453 ± 0.17

CCC(C)(C)O + CC#N
[1], 298.15 K, 101 kPa
Settings | viscosity [mPa·s]
x1 = 0.1002 | 0.387 ± 0.059
x1 = 0.1989 | 0.45 ± 0.066
x1 = 0.2988 | 0.543 ± 0.077
x1 = 0.3988 | 0.667 ± 0.09
x1 = 0.4964 | 0.832 ± 0.11
x1 = 0.6004 | 1.069 ± 0.14
x1 = 0.6969 | 1.375 ± 0.17
x1 = 0.7994 | 1.832 ± 0.22
x1 = 0.8983 | 2.493 ± 0.29
x1 = 0.958 | 3.032 ± 0.35

CCC(C)(C)O + COC(C)=O
[1], 298.15 K, 101.33 kPa
Settings | viscosity [mPa·s]
x2 = 0.1632 | 1.792 ± 0.018
x2 = 0.2443 | 1.33 ± 0.015
x2 = 0.35 | 0.96 ± 0.013
x2 = 0.448 | 0.787 ± 0.012
x2 = 0.5246 | 0.677 ± 0.012
x2 = 0.6222 | 0.57 ± 0.011
x2 = 0.7221 | 0.496 ± 0.011
x2 = 0.8153 | 0.434 ± 0.011
x2 = 0.9107 | 0.395 ± 0.011

C=CC#N + CCC(=O)c1ccccc1
[1], 308.15 K, 101 kPa
Settings | viscosity [mPa·s]
x2 = 0.1051 | 0.405 ± 0.0043
x2 = 0.1752 | 0.4545 ± 0.0048
x2 = 0.2496 | 0.513 ± 0.0053
x2 = 0.3126 | 0.5731 ± 0.0058
x2 = 0.4246 | 0.6893 ± 0.0068
x2 = 0.5385 | 0.8078 ± 0.0078
x2 = 0.6672 | 0.9571 ± 0.009
x2 = 0.8184 | 1.161 ± 0.011

CCC(C)(C)O + CCCCCO
viscosity [mPa·s], [1], 101 kPa
Settings | 298.15 K | 318.15 K
x2 = 0.051 | 3.666 ± 0.095 | 1.715 ± 0.045
x2 = 0.1017 | 3.812 ± 0.099 | 1.782 ± 0.047
x2 = 0.2023 | 4.096 ± 0.11 | 1.867 ± 0.049
x2 = 0.3041 | 4.309 ± 0.11 | 1.974 ± 0.052
x2 = 0.4034 | 4.432 ± 0.12 | 2.058 ± 0.054
x2 = 0.4972 | 4.456 ± 0.12 | 2.122 ± 0.055
x2 = 0.5939 | 4.415 ± 0.12 | 2.167 ± 0.057
x2 = 0.6991 | 4.251 ± 0.11 | 2.195 ± 0.057
x2 = 0.8003 | 4.112 ± 0.11 | 2.187 ± 0.057
x2 = 0.9012 | 3.939 ± 0.1 | 2.174 ± 0.057
x2 = 0.9496 | 3.831 ± 0.1 | 2.161 ± 0.056
